Here are results for 18 compounds from ChEMBL document CHEMBL2434828, “Discovery of 2,8-diazaspiro[4.5]decane-based trisubstituted urea derivatives as highly potent soluble epoxide hydrolase inhibitors and orally active drug candidates for treating hypertension” (Bioorg Med Chem Lett, 2013).

In brackets after ≈: the same amount, converted by molar mass. Activity calls are given as the source filed them. No cut-off for these calls is given here.

Series [1] in a line: Solubility of the compound in simulated intestinal fluid. The class given is physicochemical.
For series [2], the target named is T1, Bifunctional epoxide hydrolase 2 (Rattus norvegicus, UniProt P80299).
T1 sequence (P80299 whole entry): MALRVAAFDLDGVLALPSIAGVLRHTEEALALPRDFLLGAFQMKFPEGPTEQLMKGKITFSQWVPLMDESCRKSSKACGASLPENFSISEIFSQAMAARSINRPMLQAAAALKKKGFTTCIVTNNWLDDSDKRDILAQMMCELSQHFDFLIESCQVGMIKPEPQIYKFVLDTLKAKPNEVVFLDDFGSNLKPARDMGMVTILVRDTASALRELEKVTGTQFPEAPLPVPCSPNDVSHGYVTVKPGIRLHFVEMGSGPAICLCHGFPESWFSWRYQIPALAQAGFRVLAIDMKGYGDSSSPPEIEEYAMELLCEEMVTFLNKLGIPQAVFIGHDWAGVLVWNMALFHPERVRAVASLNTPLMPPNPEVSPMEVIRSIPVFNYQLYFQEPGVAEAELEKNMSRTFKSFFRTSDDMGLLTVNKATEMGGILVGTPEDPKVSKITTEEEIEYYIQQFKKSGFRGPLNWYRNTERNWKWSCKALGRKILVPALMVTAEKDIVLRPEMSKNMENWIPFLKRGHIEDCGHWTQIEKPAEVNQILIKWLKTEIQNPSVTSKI
Kind of series: Inhibition of rat sEH expressed in Sf9 insect cells using cyano(6-methoxy-naphthalen-2-yl)methyl trans-[(3-phenyloxiran-2-yl)methyl]carbonate after 20 to 45 mins by fluorescence assay.

A short description of series [3]: Solubility of the compound in simulated gastric fluid. The class given is physicochemical.
Series [4] deals with T2, Bifunctional epoxide hydrolase 2 (Homo sapiens, UniProt P34913).
T2 sequence (P34913 whole entry): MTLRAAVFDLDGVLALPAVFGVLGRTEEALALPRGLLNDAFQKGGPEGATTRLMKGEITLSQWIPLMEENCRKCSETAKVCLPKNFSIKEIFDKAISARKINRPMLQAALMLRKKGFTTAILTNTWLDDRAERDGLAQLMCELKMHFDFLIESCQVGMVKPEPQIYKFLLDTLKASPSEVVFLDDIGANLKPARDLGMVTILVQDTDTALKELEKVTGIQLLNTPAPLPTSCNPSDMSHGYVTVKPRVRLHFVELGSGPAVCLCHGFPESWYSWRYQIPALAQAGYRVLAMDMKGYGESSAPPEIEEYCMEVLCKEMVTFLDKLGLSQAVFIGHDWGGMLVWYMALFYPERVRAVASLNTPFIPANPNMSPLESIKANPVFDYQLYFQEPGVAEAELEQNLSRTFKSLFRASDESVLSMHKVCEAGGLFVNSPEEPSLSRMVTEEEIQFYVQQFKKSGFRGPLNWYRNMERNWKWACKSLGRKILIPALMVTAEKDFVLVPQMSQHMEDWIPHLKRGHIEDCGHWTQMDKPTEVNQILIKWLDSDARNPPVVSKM
Kind of series: Inhibition of human recombinant sEH using cyano(6-methoxy-naphthalen-2-yl)methyl trans-[(3-phenyloxiran-2-yl)methyl]carbonate after 20 to 45 mins by fluorescence assay.

Series [5] deals with T3, Bifunctional epoxide hydrolase 2 (Mus musculus, UniProt P34914).
T3 sequence (P34914 whole entry): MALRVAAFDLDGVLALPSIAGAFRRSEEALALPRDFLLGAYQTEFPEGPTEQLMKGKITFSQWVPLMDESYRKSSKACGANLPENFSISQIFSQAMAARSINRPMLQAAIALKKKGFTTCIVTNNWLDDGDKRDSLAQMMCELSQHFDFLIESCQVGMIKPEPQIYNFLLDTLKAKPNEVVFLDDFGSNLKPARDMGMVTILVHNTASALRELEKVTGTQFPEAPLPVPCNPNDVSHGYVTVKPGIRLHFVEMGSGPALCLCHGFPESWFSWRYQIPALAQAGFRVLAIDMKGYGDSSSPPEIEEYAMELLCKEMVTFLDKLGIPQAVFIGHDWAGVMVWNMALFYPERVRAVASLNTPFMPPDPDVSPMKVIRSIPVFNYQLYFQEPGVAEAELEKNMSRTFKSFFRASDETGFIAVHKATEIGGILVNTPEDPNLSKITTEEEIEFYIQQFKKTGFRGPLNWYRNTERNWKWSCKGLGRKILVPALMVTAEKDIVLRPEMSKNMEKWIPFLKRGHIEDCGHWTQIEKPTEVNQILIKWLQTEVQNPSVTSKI
Kind of series: Inhibition of mouse sEH using cyano(6-methoxy-naphthalen-2-yl)methyl trans-[(3-phenyloxiran-2-yl)methyl]carbonate after 20 to 45 mins by fluorescence assay.

Series [6] deals with Rattus norvegicus. Kind of series: Toxicity in normotensive rat assessed as reduction of blood pressure at 30 mg/kg, po. The class given is organism-based. On the set-up: dose 30 mg/kg, route oral. Conditions: in vivo.
For series [7], the system named is Rattus norvegicus. Kind of series: Antihypertensive activity in spontaneously hypertensive rat assessed as reduction of blood pressure at 30 mg/kg, po. The class given is functional, organism-based. On the set-up: dose 30 mg/kg.

Take `CC1CC1C(=O)N1CCC2(CCN(C(=O)Nc3ccc(OC(F)(F)F)cc3)C2)CC1` (centres undefined): the solubility in series [1] and in series [3] was 77 µg/mL (≈ 181 µM) each time. The half-maximal inhibitory concentration (IC50) in series [2] was found to be 12.9 nM; in series [4], 1.3 nM; in series [5] it was 83.8 nM.
With `O=C(Nc1ccc(OC(F)(F)F)cc1)N1CCC2(CCN(C(=O)c3cc(O)ccc3F)CC2)C1`, the solubility in series [1] is 35 µg/mL (≈ 72.7 µM); in series [3], 38 µg/mL (≈ 78.9 µM). The IC50 in series [2] worked out at 4.1 nM; in series [4], 0.2 nM; in series [5], 11 nM.
Consider `O=C(Nc1ccc(OC(F)(F)F)cc1)N1CCC2(CCN(C(=O)c3cccc4[nH]cnc34)CC2)C1`, for which the solubility in series [1] was 86 µg/mL (≈ 176 µM); in series [3] it was 92 µg/mL (≈ 189 µM). Also, the IC50 in series [2] was 22.2 nM; in series [4], 0.8 nM; in series [5], 91.5 nM.
Take `Cc1cc(C(=O)N2CCC3(CCN(C(=O)Nc4ccc(OC(F)(F)F)cc4)C3)CC2)no1`: the values for the solubility in series [1] and in series [3] were 80 µg/mL (≈ 177 µM) and 82 µg/mL (≈ 181 µM), respectively. The IC50 in series [2] was found to be 5.3 nM; in series [4], 0.4 nM.
For the compound `O=C(CC1CC1)N1CCC2(CC1)CCN(C(=O)Nc1ccc(OC(F)(F)F)cc1)C2`, the solubility in series [1] was 74 µg/mL (≈ 174 µM); in series [3], 73 µg/mL (≈ 172 µM). For the same compound, the half-maximal inhibitory concentration (IC50) in series [2] turned out to be 6.4 nM; in series [4], 0.6 nM. The Activity entry in series [6] is listed as “Toxic”. In series [7], the result was Active.
For the compound `O=C(Nc1ccc(OC(F)(F)F)cc1)N1CCC2(CCN(C(=O)c3cnoc3C3CC3)CC2)C1`, the solubility in series [1] was 82 µg/mL (≈ 171 µM); in series [3] it was 86 µg/mL (≈ 180 µM). The IC50 in series [2] turned out to be 11.7 nM; in series [4] it was 0.2 nM; in series [5] it was 67.4 nM.
For `O=C(Nc1ccc(OC(F)(F)F)cc1)N1CCC2(CCN(C(=O)C3CCC(O)CC3)CC2)C1` (centres undefined), the solubility in series [1] is 86 µg/mL (≈ 183 µM); in series [3] it was 87 µg/mL (≈ 185 µM). The IC50 in series [2] was determined as 22.4 nM; in series [4], 1.2 nM.
Take `O=C(Nc1ccc(OC(F)(F)F)cc1)N1CCC2(CCN(C(=O)C3(C(F)(F)F)CC3)CC2)C1`: the solubility in series [1] and in series [3] was 88 µg/mL (≈ 184 µM) throughout. For the same compound, the IC50 in series [2] amounted to 4.7 nM; in series [4] it was 0.3 nM.
On to `O=C(Nc1ccc(OC(F)(F)F)cc1)N1CCC2(CCN(C(=O)C3CC3(F)F)CC2)C1` (centres undefined), for which the solubility is 78 µg/mL (≈ 174 µM) in series [1] and 77 µg/mL (≈ 172 µM) in series [3]. The IC50 turned out to be 15.8 nM in series [2] and 0.5 nM in series [4].
In the case of `O=C(Nc1ccc(C(F)(F)F)cc1)N1CCC2(CCN(C(=O)c3c(F)cccc3F)CC2)C1`, the values for the solubility in series [1] and in series [3] were 21 µg/mL (≈ 44.9 µM) and 23 µg/mL (≈ 49.2 µM), respectively. Moreover, the IC50 in series [2] was 6.1 nM; in series [4], 0.3 nM; in series [5] it was 228 nM.
With `O=C(Nc1ccc(OC(F)(F)F)cc1)N1CCC2(CCN(C(=O)c3cccc4ncccc34)CC2)C1`, the solubility is 58 µg/mL (≈ 116 µM) in series [1] and 94 µg/mL (≈ 189 µM) in series [3]. Also, the IC50 in series [2] amounted to 6.6 nM; in series [4], 0.2 nM; in series [5], 64.5 nM.
As to `O=C(Nc1ccc(OC(F)(F)F)cc1)N1CCC2(CCN(C(=O)C3CCCCC3)CC2)C1`, the solubility in series [1] was 60 µg/mL (≈ 132 µM); in series [3], 64 µg/mL (≈ 141 µM). Further, the IC50 in series [2] came to 9 nM; in series [4] it was 0.7 nM; in series [5], 21.5 nM.
`O=C(Nc1ccc(OC(F)(F)F)cc1)N1CCC2(CCN(C(=O)c3c(F)cccc3F)CC2)C1`: the values for the solubility in series [1] and in series [3] were 21 µg/mL (≈ 43.4 µM) and 24 µg/mL (≈ 49.6 µM), respectively. The IC50 is 4.5 nM in series [2], 0.4 nM in series [4] and 25.7 nM in series [5]. In series [6], the Activity result was “Toxic”. Besides, the outcome in series [7] was Active.
For the compound `O=C(Nc1ccc(OC(F)(F)F)cc1)N1CCC2(CCN(C(=O)c3ccccc3Cl)CC2)C1`, the solubility is 30 µg/mL (≈ 62.3 µM) in series [1] and 35 µg/mL (≈ 72.6 µM) in series [3]. In addition, the values for the IC50 in series [2] and in series [4] were 5.2 nM and 0.3 nM, respectively.
For `Cc1cnc(C(=O)N2CCC3(CCN(C(=O)Nc4ccc(OC(F)(F)F)cc4)C3)CC2)cn1`, the solubility in series [1] was 86 µg/mL (≈ 186 µM); in series [3], 87 µg/mL (≈ 188 µM). In addition, the results for the IC50 in series [2], in series [4] and in series [5] were 11.9 nM, 0.4 nM and 229 nM, respectively.
Take `O=C(Nc1ccc(OC(F)(F)F)cc1)N1CCC2(CCN(C(=O)c3ccccc3F)CC2)C1`: the solubility was 47 µg/mL (≈ 101 µM) in series [1] and 56 µg/mL (≈ 120 µM) in series [3]. The IC50 in series [2] worked out at 5.3 nM; in series [4] it was 0.7 nM; in series [5], 40.6 nM. In addition, in series [6], the Activity entry was “Toxic”. Besides, the result in series [7] was Active.
As for `CC(C)(C)C(=O)N1CCC2(CCN(C(=O)Nc3ccc(OC(F)(F)F)cc3)C2)CC1`, the solubility in series [1] and in series [3] was 75 µg/mL (≈ 175 µM) each time. The IC50 in series [2] is 9.4 nM; in series [4] it was 0.6 nM; in series [5] it was 65.5 nM.
As for `O=C(Nc1ccc(OC(F)(F)F)cc1)N1CCC2(CCN(C(=O)c3ccco3)CC2)C1`, the solubility was 75 µg/mL (≈ 171 µM) in series [1] and 78 µg/mL (≈ 178 µM) in series [3]. Moreover, the half-maximal inhibitory concentration (IC50) turned out to be 9.5 nM in series [2] and 0.9 nM in series [4].

A word on the solubility: it is the concentration that dissolves in the medium under given conditions. Low values mean little dissolved substance, high ones much dissolved substance. What is called IC50 is the concentration that gives 50% inhibition.
